Measurements taken from patent publication US9637495B2, “CGRP receptor antagonists” (Eli Lilly and Company, priority 2015, dated 2017).

Each compound was assayed against T1, human CGRP receptor (Homo sapiens, UniProt O60894+Q16602) (assay: Inhibition of cAMP production by CGRP receptor antagonists in SK-N-MC cells (HTRF)). Settings: SK-N-MC neuroblastoma cells, human CGRP 0.8 nM as agonist, Kb estimated as agonist-corrected IC50, mean ± SEM; read-out: Kb hCGRP.
T1 construct: SK-N-MC neuroblastoma cells (ATCC® HTB-10™) that endogenously express the hCGRP receptor; host or cells: SK-N-MC neuroblastoma cells
T1 sequence (Q16602 23-461): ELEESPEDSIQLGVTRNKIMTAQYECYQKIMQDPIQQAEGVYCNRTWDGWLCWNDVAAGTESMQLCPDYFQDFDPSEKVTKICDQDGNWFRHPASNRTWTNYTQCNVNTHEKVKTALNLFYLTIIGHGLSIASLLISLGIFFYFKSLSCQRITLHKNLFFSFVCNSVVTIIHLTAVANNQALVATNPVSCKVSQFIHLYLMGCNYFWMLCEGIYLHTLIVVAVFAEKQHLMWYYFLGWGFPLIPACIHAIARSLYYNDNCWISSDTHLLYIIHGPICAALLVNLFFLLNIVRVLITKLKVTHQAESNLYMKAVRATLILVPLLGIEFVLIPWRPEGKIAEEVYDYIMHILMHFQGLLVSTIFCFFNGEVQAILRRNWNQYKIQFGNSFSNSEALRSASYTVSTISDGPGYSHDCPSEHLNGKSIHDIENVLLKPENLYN
T1 sequence (O60894 27-148): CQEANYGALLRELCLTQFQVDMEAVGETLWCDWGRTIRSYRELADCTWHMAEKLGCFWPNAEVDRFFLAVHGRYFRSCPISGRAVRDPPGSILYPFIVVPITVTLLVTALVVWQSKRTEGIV
Assay type: cell-based
Source text: Inhibition of cAMP Production by CGRP Receptor Antagonists
The hCGRP (human calcitonin gene-related peptide) receptor is functionally coupled to the Gαs proteins. Stimulation of hCGRP results in an increased synthesis of intracellular cAMP and can be blocked by the addition of receptor antagonists. Receptor activity is thus a reflection of the amount of cAMP present within cells which can be detected using standard in vitro technology.
Cultured SK-N-MC neuroblastoma cells (ATCC® HTB-10™) that endogenously express the hCGRP receptor are grown in Eagle's Minimum essential medium (HYCLONE™) supplemented with 10% heat-inactivated Fetal bovine serum (FBS; GIBCO®), Non-Essential Amino Acids (GIBCO®), 1 mM sodium pyruvate, 2 mM L-glutamine, 100 U/mL of penicillin, and 10 μg/mL of streptomycin to about 70% confluency. After providing fresh medium, the cells are incubated at 37° C. overnight. On the day of the assay, cells are detached using ACCUTASE® (MP Biomedicals), resuspended in assay buffer [Hank's Balanced Salt Solution/Dulbecco's phosphate-buffered saline with […] each of CaCl2 and MgCl2 mixed 1:2, 3.3 mM 4-(2-hydroxyethyl)-1-piperazineethanesulfonic acid, 0.03% bovine serum albumin, and 0.5 mM 1-methyl-3-isobutylxanthine (as inhibitor of […])], and seeded 3-5K/well into 384-well, poly-D-lysine coated white plates (BD Biosciences).
For dose-response studies, compounds are serially diluted 1:3 in dimethyl sulfoxide and then 1:10 into assay buffer. Human CGRP (0.8 nM; Bachem) as a receptor-specific agonist for the hCGRP receptor is mixed with diluted compound and added to the cells as the challenge stimulant at their EC80 concentrations.
The amount of intracellular cAMP is quantitated using HTRF technology (Cisbio) as per vendor instructions. Briefly, cAMP-d2 conjugate and anti-cAMP-cryptate conjugate in lysis buffer are incubated with the treated cells at room temperature for 90 min. The HTRF signal is immediately detected using an ENVISION® plate reader (Perkin-Elmer) to calculate the ratio of fluorescence at […]. The raw data are converted to cAMP amount (pmole/well) using a cAMP standard curve generated for each experiment. Relative EC50 values are calculated from the top-bottom range of the concentration response curve using a four-parameter logistic curve fitting program (ACTIVITYBASE® v5.3.1.22 or GENEDATA SCREENER® v12.0.4), and Kb values are estimated as agonist-corrected IC50 values using the equation: Kb=(IC50)/[1+([Agonist]/EC50)]. Estimated Kb values are reported as mean values±SEM, averaged from the number of runs (n).

SMILES | Kb
Cc1cc(C)nc(CNC(=O)c2ccc([C@@H](C)[C@@]3(C)C(=O)Nc4ncccc43)cc2)c1 [Example 12, N-[(4,6-dimethylpyridin-2-yl)methyl]-4-{(1R)-1-[(3R)-3-methyl-2-oxo-2,3-dihydro-1H-pyrrolo[2,3-]pyridin-3-yl]ethyl}benzamide] | 42.8 ± 13 pM
CCc1cc(CNC(=O)c2ccc([C@@H](C)[C@@]3(C)C(=O)Nc4ncccc43)cn2)cc(C)n1 [Example 13, N-[(2-ethyl-6-methylpyridin-4-yl)methyl]-5-{(1R)-1-[(3R)-3-methyl-2-oxo-2,3-dihydro-1H-pyrrolo[2,3-b]pyridin-3-yl]ethyl}pyridine-2-carboxamide] | 45.3 ± 1.53 pM
Cc1cc(C)nc(CNC(=O)c2ccc([C@@H](C)[C@@]3(C)C(=O)Nc4ncncc43)cc2)c1 [Example 7, N-[(4,6-dimethylpyridin-2-yl)methyl]-4-{(1R)-1-[(5R)-5-methyl-6-oxo-6,7-dihydro-5H-pyrrolo[2,3-d]pyrimidin-5-yl]ethyl}benzamide] | 97.7 ± 2.76 pM
Cc1cc(CNC(=O)c2ccc([C@@H](C)[C@@]3(C)C(=O)Nc4ncccc43)cc2)cc(C#N)n1 [Example 16, N-[(2-cyano-6-methylpyridin-4-yl)methyl]-4-{(1R)-1-[(3R)-3-methyl-2-oxo-2,3-dihydro-1H-pyrrolo[2,3-b]pyridin-3-yl]ethyl}benzamide] | 813 pM
Cc1cc(CNC(=O)c2ccc([C@@H](C)[C@@]3(C)C(=O)Nc4ncccc43)cc2)cc(C2CC2)n1 [Example 4, N-[(2-cyclopropyl-6-methyl-4-pyridyl)methyl]-4-[(1R)-1-[(3R)-3-methyl-2-oxo-1H-pyrrolo[2,3-b]pyridin-3-yl]ethyl]benzamide] | 26.6 pM
Cc1cc(CNC(=O)c2ccc([C@@H](C)[C@@]3(C)C(=O)Nc4ncccc43)cc2)cc(C2CCC2)n1 [Example 5, N-[(2-cyclobutyl-6-methylpyridin-4-yl)methyl]-4-{(1R)-1-[(3R)-3-methyl-2-oxo-2,3-dihydro-1H-pyrrolo[2,3-b]pyridin-3-yl]ethyl}benzamide] | 6.96 pM
CCc1cc(CNC(=O)c2ccc([C@@H](C)[C@@]3(C)C(=O)Nc4ncccc43)cc2)cc(C)n1 [Example 3, N-[(2-ethyl-6-methylpyridin-4-yl)methyl]-4-{(1R)-1-[(3R)-3-methyl-2-oxo-2,3-dihydro-1H-pyrrolo[2,3-b]pyridin-3-yl]ethyl}benzamide] | 17.3 pM
Cc1cc(C#N)nc(CNC(=O)c2ccc([C@@H](C)[C@@]3(C)C(=O)Nc4ncccc43)cc2)c1 [Example 11, N-[(6-cyano-4-methyl-2-pyridyl)methyl]-4-[(1R)-1-[(3R)-3-methyl-2-oxo-1H-pyrrolo[2,3-b]pyridin-3-yl]ethyl]benzamide] | 40.4 pM
Cc1cc(CNC(=O)c2ccc([C@@H](C)[C@@]3(C)C(=O)Nc4ncccc43)cc2)cc(C2CCCC2)n1 [Example 6, N-[(2-cyclopentyl-6-methylpyridin-4-yl)methyl]-4-{(1R)-1-[(3R)-3-methyl-2-oxo-2,3-dihydro-1H-pyrrolo[2,3-b]pyridin-3-yl]ethyl}benzamide] | 18.2 pM
Cc1cc(CNC(=O)c2ccc([C@@H](C)[C@@]3(C)C(=O)Nc4ncccc43)cn2)cc(C)n1 [Example 1, N-[(2,6-dimethylpyridin-4-yl)methyl]-5-{(1R)-1-[(3R)-3-methyl-2-oxo-2,3-dihydro-1H-pyrrolo[2,3-b]pyridin-3-yl]ethyl}pyridine-2-carboxamide] | 46.5 ± 9.7 pM
Cc1cc(CNC(=O)c2ccc([C@@H](C)[C@@]3(C)C(=O)Nc4ncccc43)cn2)cc(C2CC2)n1 [Example 9, N-[(2-cyclopropyl-6-methylpyridin-4-yl)methyl]-5-{(1R)-1-[(3R)-3-methyl-2-oxo-2,3-dihydro-1H-pyrrolo[2,3-b]pyridin-3-yl]ethyl}pyridine-2-carboxamide] | 24.5 pM
Cc1cc(CNC(=O)c2ccc([C@@H](C)[C@@]3(C)C(=O)Nc4ncccc43)cc2)cc(C)n1 [Example 2, N-[(2,6-dimethyl-4-pyridyl)methyl]-4-[(1R)-1-[(3R)-3-methyl-2-oxo-1H-pyrrolo[2,3-b]pyridin-3-yl]ethyl]benzamide] | 36.6 ± 15.4 pM
Cc1cc(C)nc(CNC(=O)c2ccc([C@@H](C)[C@@]3(C)C(=O)Nc4ncccc43)cn2)c1 [Example 15, N-[(4,6-dimethylpyridin-2-yl)methyl]-5-{(1R)-1-[(3R)-3-methyl-2-oxo-2,3-dihydro-1H-pyrrolo[2,3-b]pyridin-3-yl]ethyl}pyridine-2-carboxamide] | 171 ± 33.9 pM
Cc1cc(CNC(=O)c2ccc([C@@H](C)[C@@]3(C)C(=O)Nc4ncncc43)cn2)cc(C)n1 [Example 10, N-[(2,6-dimethyl-4-pyridyl)methyl]-5-[(1R)-1-[(5R)-5-methyl-6-oxo-7H-pyrrolo[2,3-d]pyrimidin-5-yl]ethyl]pyridine-2-carboxamide] | 198 ± 45.9 pM
Cc1cc(CNC(=O)c2ccc([C@@H](C)[C@@]3(C)C(=O)Nc4ncccc43)cc2)cc(C(C)C)n1 [Example 14, 4-{(1R)-1-[(3R)-3-methyl-2-oxo-2,3-dihydro-1H-pyrrolo[2,3-b]pyridin-3-yl]ethyl}-N-{[2-methyl-6-(propan-2-yl)pyridin-4-yl]methyl}benzamide] | 26 pM

These compounds were tested on CGRP receptor (assay: Capsaicin-induced dermal blood flow (laser Doppler imaging) in non-human primates). Settings: 3 mg/kg orally, 90 min prior to capsaicin, cynomolgus NHP, compared to vehicle, p<0.008.
Assay type: in vivo
Source text: Capsaicin-induced dermal blood flow (DBF) is used as a target engagement biomarker to assess CGRP receptor activity in nonhuman primates (NHPs). Methods are adapted from earlier published procedures [Hershey et al., Regulatory Peptides, Volume 127, Issue 1-3, pp. 71-77, 2005].
Animal studies may be performed under protocols approved by the Covance Institutional Animal Care and Use Committee. Cynomolgus NHPs may be used given the close homology between NHP and human CGRP receptor. The study population may include healthy, CGRP antagonist naive cynomolgus NHP males weighing ˜3-4 kg.
Cynomolgus NHPs are enrolled in the study based on prescreening for capsaicin responsiveness. […] NHPs are used in a cross over design in which all NHPs received all doses after a two week wash-out period. Total n=10 NHPs per group.
NHPs each receive vehicle, 3, 10 and 30 mg/kg of the CGRP receptor antagonist Example 1 administered orally (10% Acacia w/v/0.05% Antifoam 1510-US emulsion v/v/in purified water) 90 min prior to the capsaicin administration in the laser Doppler imaging (LDI) experiment.
Animals are fasted overnight prior to each capsaicin challenge. On the day of the experiment, the NHPs are anesthetized with 1% Isoflurane for approximately 30 min prior to scanning. The NHPs are placed in a quiet, temperature-controlled room supine on a warm small surgical blanket and the shaved arm is placed on a heating pad under the laser head. Three neoprene O-rings (size=8 mm ID) are placed on the NHP forearm, approximately 1 cm apart. During a 30-minute stabilization period, preliminary scans are obtained to confirm correct positioning of the O-rings. […]
LDI repeat scans are analyzed using Moor software v.5.3 (Moor Instruments, Wilmington, Del.) by region of interest signal analysis, and Microsoft Excel worksheets are used for averaging the signal from the regions of interest at a given time point. […] Analyzed data is entered into Graphpad PRISM® 4.0 for graphing and a repeated measurement mixed-effect model in SAS® 9.1 is used for statistical analysis. Data is expressed as mean+/−SEM.

SMILES | group mean inhibition of capsaicin-induced dermal blood flow increase
Cc1cc(CNC(=O)c2ccc([C@@H](C)[C@@]3(C)C(=O)Nc4ncccc43)cn2)cc(C)n1 [Example 1, N-[(2,6-dimethylpyridin-4-yl)methyl]-5-{(1R)-1-[(3R)-3-methyl-2-oxo-2,3-dihydro-1H-pyrrolo[2,3-b]pyridin-3-yl]ethyl}pyridine-2-carboxamide] | 32.1%

Same assay, conditions: 10 mg/kg orally, 90 min prior to capsaicin, cynomolgus NHP, compared to vehicle, p<0.0004

SMILES | group mean inhibition of capsaicin-induced dermal blood flow increase
Cc1cc(CNC(=O)c2ccc([C@@H](C)[C@@]3(C)C(=O)Nc4ncccc43)cn2)cc(C)n1 [Example 1, N-[(2,6-dimethylpyridin-4-yl)methyl]-5-{(1R)-1-[(3R)-3-methyl-2-oxo-2,3-dihydro-1H-pyrrolo[2,3-b]pyridin-3-yl]ethyl}pyridine-2-carboxamide] | 46.1%

Same assay, conditions: 30 mg/kg orally, 90 min prior to capsaicin, cynomolgus NHP, compared to vehicle, p<0.00002

SMILES | group mean inhibition of capsaicin-induced dermal blood flow increase
Cc1cc(CNC(=O)c2ccc([C@@H](C)[C@@]3(C)C(=O)Nc4ncccc43)cn2)cc(C)n1 [Example 1, N-[(2,6-dimethylpyridin-4-yl)methyl]-5-{(1R)-1-[(3R)-3-methyl-2-oxo-2,3-dihydro-1H-pyrrolo[2,3-b]pyridin-3-yl]ethyl}pyridine-2-carboxamide] | 58.8%
